Assays:
[1] = biological target: recombinant PAPD5 (Homo sapiens, UniProt Q8NDF8); assay: Inhibition of recombinant PAPD5 by aminoglycosides; format: biochemical; details: 10 μM each; FIG. 26
Method: FIG. 26 is a graph showing inhibition of recombinant PAPD5 by aminoglycosides.
Experiments were performed to determine whether aminoglycosides can be used to inhibit PAPD5. 10 μM each of the following are used, (1) Kanamycin B sulfate; (2) Apramycin sulfate; (3) Spectinomycin dihydrochloride pentahydrate; and (4) Ribostamycin sulfate.

[2] = test system: human TRF4-2; assay: Lentiviral shRNA knockdown of TRF4-2 (PAPD5) in fibroblasts and patient-derived cells; format: cell-based
Description: Short-hairpin RNA (shRNA) constructs. Duplex oligonucleotides encoding shRNA targeting human TRF4-2 (ENA accession number: FR872509) and human PARN (NM_002582) or luciferase control (Table 6) were cloned into the pLKO.1-puro vector (Addgene #10878), and pLKO.1-blast vector (Addgene #26655). Lentiviral vector production and transduction of cells.
Lentiviral vectors encoding shRNAs were produced by co-transfection of 293 cells with lentiviral plasmids described above, pCMV_dR8.91 and pCMV_VSV-G, using branched polyethylenimine (Sigma). Supernatants were harvested, filtered and frozen in aliquots on days 3-4 following transfection. For knockdown experiments, cells were transduced with lentivirus and harvested 6 days after selection in puromycin (2 μg/ml for 293 cells; 0.2 μg/ml for iPS cells) or blasticidin (10 μg/ml for 293 cells).

[3] = test system: human PAPD5; assay: PAPD5 shRNA knockdown in PARN deficient HEK 293 cells: 3' RACE deep sequencing and Northern blot of TERC; format: cell-based; details: Northern blot, normal and PARN deficient HEK 293 cells, FIG. 11G, FIG. 18
Description: short-hairpin RNA (shRNA) constructs. Duplex oligonucleotides encoding shRNA targeting human PAPD5 (ENA accession: FR872509) or luciferase control (Table 13) were cloned into the pLKO.1-puro vector and pLKO.1-blast vectors (Addgene #10878 and #26655). shRNA constructs targeting human PARN (NM_002582) were as described, e.g., in Moon, Diane H., et al. “Poly (A)-specific ribonuclease (PARN) mediates 3 [prime]-end maturation of the telomerase RNA component.” Nature genetics 47.12 (2015): 1482-1488.
Viral vector production and transduction. […]. Lentiviral particles were produced by co-transfection of HEK 293T cells with lentiviral vectors, pCMV_dR8.91 and pCMV_VSV-G. For knockdown and overexpression experiments, HEK 293 cells, fibroblasts and iPSCs were transduced with viral vectors in the presence of protamine sulfate (10 μg/ml) for 8-12 hours. For TERC and DKC1 experiments, transduced HEK 293 cells and fibroblasts were sorted for mCherry or EGFP expression and cultured without further selection. […]
Formaldehyde/agarose gel electrophoresis. […] Quantification was performed using ImageJ. […]
TERC RNA 3′ ends were profiled as described in e.g., Moon, Diane H., et al. “Poly (A)-specific ribonuclease (PARN) mediates 3 [prime]-end maturation of the telomerase RNA component.” Nature genetics 47.12 (2015): 1482-1488. […] Reads mapping to the TERC gene were analyzed using custom developed Perl scripts.

[4] = test system: PARN; assay: CRISPR/Cas9 genome targeting of PARN in normal (WT) iPSCs, lentiviral gRNA; format: cell-based, human
Method: (§1) Experiments were performed to determine the requirement of PARN and PAPD5 for viability and function of human stem cells. CRISPR/Cas9 genome targeting was performed to create biallelic null mutations. Lentiviral vectors containing guide RNAs (gRNAs; Table 15) to PARN or PAPD5 were designed and used to transduce normal (WT) and PARN mutant induced pluripotent stems (iPSCs), and the frequency of insertion/deletions (indels) were assessed. […] Populations of stable lentiviral transduced PARN or PAPD5 targeted iPSCs were subcloned to identify lines with biallelic inactivation of PARN or PAPD5. […] In contrast, iPSCs with indels causing frameshifts in PAPD5 and lacking PAPD5 protein could be isolated (FIG. 23). Inactivation of PAPD5 by CRISPR/Cas9 augmented TERC levels in iPSC clones (FIG. 24).

[5] = test system: human PARN; assay: PARN shRNA knockdown in 293 cells: 3' RACE and deep sequencing of TERC 3' ends; format: cell-based; details: versus control shRNA, FIG. 8
Method: 600 ng of total RNA was ligated to 5 μM of 5′-adenylated, 3′-blocked adapter (Universal miRNA cloning linker, New England Biolabs, Ipswich, Mass.) with 280 units of T4 RNA ligase truncated KQ (New England Biolabs, Ipswich, Mass.), 25% PEG 8000, and 1 μl RNaseOUT (Life Technologies, Carlsbad, Calif.) in a 20 μl reaction at 25 degrees C. for 16-24 hr. After cleanup with RNA Clean and Concentrator columns (Zymo Research, Irvine, Calif.), followed by DNase treatment, cDNA was synthesized with 5 pmol of universal RT primer and SuperScript III. […] PCR products were directly analyzed run on 2.5% agarose gels to visualize mature and extended TERC transcripts, or subject to Qiaquick PCR purification columns (Qiagen, Hilden, Germany) for library preparation for deep sequencing. […]
RACE products were prepared for deep sequencing using the TruSeq Nano DNA LT Library Prep Kit (Illumina, San Diego, Calif.). […] The quality and quantity of each library was determined on an Advanced Analytical Fragment Analyzer. […] The reads were de-multiplexed with CASAVA 1.8.2 and the read 1 and read 2 fastq files for each sample were generated. For data analysis, the Illumina adapter sequence was first removed from the end of each read using Trimmomatic50. […] The joined-reads from each sample were then mapped to the TERC gene (NR_001566; SEQ ID NO: 99) with the Bowtie2 mapper52, and outputted to a SAM file. […]

[6] = test system: PAPD5; assay: CRISPR/Cas9 genome targeting of PAPD5 in PARN mutant iPSCs, lentiviral gRNA; format: cell-based, human
Method: as §1

Sequence of recombinant PAPD5 (Q8NDF8 whole entry): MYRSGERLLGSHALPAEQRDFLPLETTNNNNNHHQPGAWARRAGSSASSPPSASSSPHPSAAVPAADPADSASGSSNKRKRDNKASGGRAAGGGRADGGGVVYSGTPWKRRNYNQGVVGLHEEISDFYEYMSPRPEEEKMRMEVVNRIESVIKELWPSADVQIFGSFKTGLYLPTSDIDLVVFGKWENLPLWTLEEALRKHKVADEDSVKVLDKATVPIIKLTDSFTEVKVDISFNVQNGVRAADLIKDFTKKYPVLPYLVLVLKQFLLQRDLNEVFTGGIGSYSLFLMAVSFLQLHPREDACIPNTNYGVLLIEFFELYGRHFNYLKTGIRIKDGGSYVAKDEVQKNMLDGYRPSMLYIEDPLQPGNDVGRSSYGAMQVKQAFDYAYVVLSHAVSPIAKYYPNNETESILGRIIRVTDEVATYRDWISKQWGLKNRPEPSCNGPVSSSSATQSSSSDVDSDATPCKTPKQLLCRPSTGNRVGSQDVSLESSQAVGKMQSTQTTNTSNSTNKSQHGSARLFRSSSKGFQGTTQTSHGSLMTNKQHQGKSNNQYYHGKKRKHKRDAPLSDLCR

## NC[C@H]1O[C@H](O[C@H]2[C@H](O)[C@@H](O[C@H]3O[C@H](CO)[C@@H](O)[C@H](N)[C@H]3O)[C@H](N)C[C@@H]2N)[C@H](N)[C@@H](O)[C@@H]1O.O=S(=O)(O)O [Kanamycin B sulfate]
[1]
  inhibition of PAPD5: can inhibit PAPD5

## NC[C@H]1O[C@H](O[C@H]2[C@H](O[C@@H]3O[C@H](CO)[C@@H](O)[C@H]3O)[C@@H](O)[C@H](N)C[C@@H]2N)[C@H](N)[C@@H](O)[C@@H]1O.O=S(=O)(O)O [Ribostamycin sulfate]
[1]
  inhibition of PAPD5: can inhibit PAPD5

## CN[C@@H]1[C@H](O)[C@H](NC)[C@H]2O[C@@]3(O)C(=O)C[C@@H](C)O[C@H]3O[C@@H]2[C@H]1O.Cl.Cl.O.O.O.O.O [Spectinomycin dihydrochloride pentahydrate]
[1]
  inhibition of PAPD5: can inhibit PAPD5

## Apramycin sulfate
[1]
  inhibition of PAPD5: can inhibit PAPD5

## PAPD5 shRNA1: lentivirus-encoded shRNA targeting human PAPD5, SEQ ID NO: 83 in Table 13 (CCGGCGATGTTGGAAGGAGTTCATACTCGAGTATGAACTCCTTCCAACATCGTTTTTG)
[2]
  TERC levels: restored the TERC levels
  knock-down of PAPD5: knocked-down PAPD5 to significant levels
[3]
  steady state levels of TERC transcripts: increased

## PAPD5 shRNA2: lentivirus-encoded shRNA targeting human PAPD5, SEQ ID NO: 79 in Table 13 (CCGGGCCACATATAGAGATTGGATACTCGAGTATCCAATCTCTATATGTGGCTTTTTG)
[2]
  TERC levels: restored the TERC levels
  knock-down of PAPD5: knocked-down PAPD5 to significant levels
[3]
  steady state levels of TERC transcripts: increased

## PARN gRNA 91: guide RNA targeting PARN for CRISPR/Cas9, SEQ ID NO: 94 (target + PAM), 95 (guide TGAAGTGTTAGGAGATACAT; listed as DNA, chemistry not given here)
[4]
  frequency of insertion/deletions (indels): high frequency of indels
[4]; qPCR, FIG. 20A
  PARN RNA transcript levels: reductions
[4]; qPCR, FIG. 20B
  TERC RNA levels: reductions

## PARN shRNA1: lentivirus-encoded shRNA directed against PARN (3' untranslated region), SEQ ID NO: 74 (DNA CCGGCCGCACTGTATTTAACTTAATCTCGAGATTAAGTTAAATACAGTGCGGTTTTTG)
[5]
  levels of mature TERC: diminished levels of mature TERC
  oligo(A) forms of TERC: increased oligo(A) forms

## gRNA 451: guide RNA targeting PAPD5 for CRISPR/Cas9, SEQ ID NO: 88 (target + PAM), 89 (guide CCTCTTGTTGCTGCTGCCCG; listed as DNA, chemistry not given here)
[6]; PAPD5 gRNAs
  frequency of insertion/deletions (indels): highest frequency of indels
[6]; PARN mutant cells, qPCR, FIG. 21A
  PAPD5 transcript levels: reductions
[6]; PARN mutant cells, qPCR, FIG. 21B
  TERC RNA levels: increases

Source: patent US11220689B2, “Modulators of telomere disease” (Children's Medical Center Corporation, priority 2015, dated 2022)
